Where a name gives a salt, the structure may show the parent alone. Read-outs that look alike come from different tables or passages of the source. Some results are limits rather than exact numbers.

The values below come from US11034718B2, “C-3 novel triterpenone with C-17 reverse amide derivatives as HIV inhibitors” (HETERO LABS LIMITED, priority 2015, dated 2021).

This experiment concerns HIV-1 strain 92HT599. Kind of experiment: Antiviral activity against HIV-1 strain 92HT599 in MT2 cells (p24 estimation). In kind it is cell-based. The following applies: HIV-1 92HT599, ~96 hours. The protocol: Example 77: Evaluation of Compounds Antiviral Activity Against HIV-1 Strain 92HT599 in MT2 Cells
MT2 cells were infected with HIV-1 strain 92HT599 (10 TCID 50/30000 cells). The infected cells were plated at the concentration of 30,000 cells per well in 96 well plate. Test compound was added to the micro plate in defined format with the final concentration of DMSO (vehicle) is not more than 1%. Incubation was carried out in CO2 incubator for ˜96 hours for viral infection. At the end of incubation period an aliquot from each well was taken for p24 estimation. The quantitation of p24 is an index for antiviral activity of the compound. Percent inhibition was calculated with reference to control values (vehicle controls). p24 estimation was carried out using Advance biosciences kit as per the procedure detailed by supplier.

[1] abbreviates: Human immunodeficiency virus 1, 0% serum binding assay, read-out: IC50 0% serum.
Setting [2] is: Human immunodeficiency virus 1, 40% serum binding assay, read-out: IC50 40% serum.

In the case of `CC(C)C1=C2[C@H]3CC[C@@H]4[C@@]5(C)CC[C@H](OC(=O)[C@H]6C[C@@H](C(=O)O)C6(C)C)C(C)(C)[C@@H]5CC[C@@]4(C)[C@]3(C)CC[C@@]2(NC(=O)C(C)(C)NCc2ccccn2)CC1=O` [Example 67, (1R,3S)-3-((((3aR,5aR,5bR,7aR,9S,11aR,11bR,13aS)-1-isopropyl-5a,5b,8,8,11a-pentamethyl-3a-(2-methyl-2-((pyridin-2-ylmethyl)amino)propan amido)-2-oxo-3,3a,4,5,5a,5b,6,7,7a,8,9,10,11,11a,11b,12,13,13a-octadecahydro-2H-cyclopenta[a]chrysen-9-yl)oxy)carbonyl)-2,2-dimethylcyclobutane-1-carboxylic acid], the IC50 runs as follows: under setting [1], less than 3 nM; under setting [2], less than 50 nM.
Taken in the same sequence, the figures for `CC(C)C1=C2[C@H]3CC[C@@H]4[C@@]5(C)CC[C@H](OC(=O)[C@H]6C[C@@H](C(=O)O)C6(C)C)C(C)(C)[C@@H]5CC[C@@]4(C)[C@]3(C)CC[C@@]2(NC(=O)C(C)(C)NC(=O)C2CCNCC2)CC1=O` [Example 35, (1R,3S)-3-((((3aR,5aR,5bR,7aR,9S,11aR,11bR,13aS)-1-isopropyl-5a,5b,8,8,11a-pentamethyl-3a-(2-methyl-2-(piperidine-4-carboxamido)propanamido)-2-oxo-3,3a,4,5,5a,5b,6,7,7a,8,9,10,11,11a,11b,12,13,13a-octadecahydro-2H-cyclopenta[a]chrysen-9-yl)oxy)carbonyl)-2,2-dimethylcyclobutane-1-carboxylic acid hydrochloride] were greater than 10 nM and greater than 200 nM.
In the same order, the values of `Cc1ccc(-c2nc3cc(C(=O)NC(C)(C)C(=O)N[C@@]45CC[C@]6(C)[C@H](CC[C@@H]7[C@@]8(C)CC[C@H](OC(=O)[C@H]9C[C@@H](C(=O)O)C9(C)C)C(C)(C)[C@@H]8CC[C@]76C)C4=C(C(C)C)C(=O)C5)ccc3[nH]2)cn1` [Example 13, (1R,3S)-3-((((3aR,5aR,5bR,7aR,9S,11aR,11bR,13aS)-1-isopropyl-5a,5b,8,8,11a-pentamethyl-3a-(2-methyl-2-(2-(6-methylpyridin-3-yl)-1H-benzo[d]imidazole-5-carboxamido)propanamido)-2-oxo-3,3a,4,5,5a,5b,6,7,7a,8,9,10,11,11a,11b,12,13,13a-octadecahydro-2H-cyclopenta[a]chrysen-9-yl)oxy)carbonyl)-2,2-dimethylcyclobutane-1-carboxylic acid] are less than 3 nM and less than 50 nM.
Taken in the same sequence, the figures for `Cc1ccc(C(=O)NC(C)(C)C(=O)N[C@@]23CC[C@]4(C)[C@H](CC[C@@H]5[C@@]6(C)CC[C@H](OC(=O)[C@H]7C[C@@H](C(=O)O)C7(C)C)C(C)(C)[C@@H]6CC[C@]54C)C2=C(C(C)C)C(=O)C3)cc1` [Example 23, (1R,3S)-3-((((3aR,5aR,5bR,7aR,9S,11aR,11bR,13aS)-1-isopropyl-5a,5b,8,8,11a-pentamethyl-3a-(2-methyl-2-(4-methylbenzamido)propanamido)-2-oxo-3,3a,4,5,5a,5b,6,7,7a,8,9,10,11,11a,11b,12,13,13a-octadecahydro-2H-cyclopenta[a]chrysen-9-yl)oxy)carbonyl)-2,2-dimethylcyclobutane-1-carboxylic acid] were less than 3 nM and less than 50 nM.
As for `CCN1CCN(CC(=O)NC(C)(C)C(=O)N[C@@]23CC[C@]4(C)[C@H](CC[C@@H]5[C@@]6(C)CC[C@H](OC(=O)[C@H]7C[C@@H](C(=O)O)C7(C)C)C(C)(C)[C@@H]6CC[C@]54C)C2=C(C(C)C)C(=O)C3)CC1` [Example 9, (1R,3S)-3-((((3aR,5aR,5bR,7aR,9S,11aR,11bR,13aS)-3a-(2-(2-(4-ethylpiperazin-1-yl)acetamido)-2-methylpropanamido)-1-isopropyl-5a,5b,8,8,11a-pentamethyl-2-oxo-3,3a,4,5,5a,5b,6,7,7a,8,9,10,11,11a,11b,12,13,13a-octadecahydro-2H-cyclopenta[a]chrysen-9-yl)oxy)carbonyl)-2,2-dimethylcyclobutane-1-carboxylic acid], the IC50 under setting [1] is less than 3 nM and the IC50 under setting [2] was greater than 200 nM.
As to `CC(C)C1=C2[C@H]3CC[C@@H]4[C@@]5(C)CC[C@H](OC(=O)[C@H]6C[C@@H](C(=O)O)C6(C)C)C(C)(C)[C@@H]5CC[C@@]4(C)[C@]3(C)CC[C@@]2(NC(=O)C(C)(C)NC(=O)c2ccccc2)CC1=O` [Example 3, (1R,3S)-3-((((3aR,5aR,5bR,7aR,9S,11aR,11bR,13aS)-3a-(2-benzamido-2-methylpropanamido)-1-isopropyl-5a,5b,8,8,11a-pentamethyl-2-oxo-3,3a,4,5,5a, 5b,6,7,7a,8,9,10,11,11a,11b,12,13,13a-octadecahydro-2H-cyclopenta[a]chrysen-9-yl)oxy)carbonyl)-2,2-dimethylcyclobutane-1-carboxylic acid], the IC50 under setting [1] was less than 3 nM and the IC50 under setting [2] is less than 50 nM.
Taken in the same sequence, the figures for `Cc1ccc(C(=O)NC2(C(=O)N[C@@]34CC[C@]5(C)[C@H](CC[C@@H]6[C@@]7(C)CC[C@H](OC(=O)[C@H]8C[C@@H](C(=O)O)C8(C)C)C(C)(C)[C@@H]7CC[C@]65C)C3=C(C(C)C)C(=O)C4)CCC2)cn1` [Example 43, (1R,3S)-3-((((3aR,5aR,5bR,7aR,9S,11aR,11bR,13aS)-1-isopropyl-5a,5b,8,8,11a-pentamethyl-3a-(1-(6-methylnicotinamido)cyclobutane-1-carboxamido)-2-oxo-3,3a,4,5,5a,5b,6,7,7a,8,9,10,11,11a,11b,12,13,13a-octadecahydro-2H-cyclopenta[a]chrysen-9-yl)oxy)carbonyl)-2,2-dimethylcyclobutane-1-carboxylic acid] were less than 3 nM and less than 50 nM.
In the same order, the values of `CC(C)C1=C2[C@H]3CC[C@@H]4[C@@]5(C)CC[C@H](OC(=O)[C@H]6C[C@@H](C(=O)O)C6(C)C)C(C)(C)[C@@H]5CC[C@@]4(C)[C@]3(C)CC[C@@]2(NC(=O)C(C)(C)NC(=O)c2ccc3[nH]cnc3c2)CC1=O` [Example 12, (1R,3S)-3-((((3aR,5aR,5bR,7aR,9S,11aR,11bR,13aS)-3a-(2-(1H-benzo[d]imidazole-5-carboxamido)-2-methylpropanamido)-1-isopropyl-5a,5b,8,8,11a-pentamethyl-2-oxo-3,3a,4,5,5a,5b,6,7,7a,8,9,10,11,11a,11b,12,13,13a-octadecahydro-2H-cyclopenta[a]chrysen-9-yl)oxy)carbonyl)-2,2-dimethylcyclobutane-1-carboxylic acid] are less than 3 nM and 50 to 200 nM.
In the same order, the values of `CC(C)C1=C2[C@H]3CC[C@@H]4[C@@]5(C)CC[C@H](OC(=O)[C@H]6C[C@@H](C(=O)O)C6(C)C)C(C)(C)[C@@H]5CC[C@@]4(C)[C@]3(C)CC[C@@]2(NC(=O)C(C)(C)NC(=O)c2ccco2)CC1=O` [Example 26, (1R,3S)-3-((((3aR,5aR,5bR,7aR,9S,11aR,11bR,13aS)-3a-(2-(furan-2-carboxamido)-2-methylpropanamido)-1-isopropyl-5a,5b,8,8,11a-pentamethyl-2-oxo-3,3a,4,5,5a,5b,6,7,7a,8,9,10,11,11a,11b,12,13,13a-octadecahydro-2H-cyclopenta[a]chrysen-9-yl)oxy)carbonyl)-2,2-dimethylcyclobutane-1-carboxylic acid] are less than 3 nM and 50 to 200 nM.
As for `Cc1ccc(C(=O)NC2(C(=O)N[C@@]34CC[C@]5(C)[C@H](CC[C@@H]6[C@@]7(C)CC[C@H](OC(=O)[C@H]8C[C@@H](C(=O)O)C8(C)C)C(C)(C)[C@@H]7CC[C@]65C)C3=C(C(C)C)C(=O)C4)CCCCC2)cn1` [Example 49, (1R,3S)-3-((((3aR,5aR,5bR,7aR,9S,11aR,11bR,13aS)-1-isopropyl-5a,5b,8,8,11a-pentamethyl-3a-(1-(6-methylnicotinamido)cyclohexane-1-carboxamido)-2-oxo-3,3a,4,5,5a,5b,6,7,7a,8,9,10,11,11a,11b,12,13,13a-octadecahydro-2H-cyclopenta[a]chrysen-9-yl)oxy)carbonyl)-2,2-dimethylcyclobutane-1-carboxylic acid], the IC50 under setting [1] is less than 3 nM and the IC50 under setting [2] was less than 50 nM.
In the same order, the values of `CC(C)C1=C2[C@H]3CC[C@@H]4[C@@]5(C)CC[C@H](OC(=O)[C@H]6C[C@@H](C(=O)O)C6(C)C)C(C)(C)[C@@H]5CC[C@@]4(C)[C@]3(C)CC[C@@]2(NC(=O)C(C)(C)NC(=O)C(C)(C)N)CC1=O` [Example 11, (1R,3S)-3-((((3aR,5aR,5bR,7aR,9S,11aR,11bR,13aS)-3a-(2-(2-amino-2-methylpropanamido)-2-methylpropanamido)-1-isopropyl-5a,5b,8,8,11a-pentamethyl-2-oxo-3,3a,4,5,5a,5b,6,7,7a,8,9,10,11,11a,11b,12,13,13a-octadecahydro-2H-cyclopenta[a]chrysen-9-yl)oxy)carbonyl)-2,2-dimethylcyclobutane-1-carboxylic acid hydrochloride] are less than 3 nM and 50 to 200 nM.
Taken in the same sequence, the figures for `CC(C)C1=C2[C@H]3CC[C@@H]4[C@@]5(C)CC[C@H](OC(=O)[C@H]6C[C@@H](C(=O)O)C6(C)C)C(C)(C)[C@@H]5CC[C@@]4(C)[C@]3(C)CC[C@@]2(NC(=O)C(C)(C)NC(=O)C2(c3ccc(Cl)cc3)CC2)CC1=O` [Example 2, (1R,3S)-3-((((3aR,5aR,5bR,7aR,9S,11aR,11bR,13aS)-3a-(2-(1-(4-chlorophenyl)cyclopropane-1-carboxamido)-2-methylpropanamido)-1-isopropyl-5a,5b,8,8,11a-pentamethyl-2-oxo-3,3a,4,5,5a,5b,6,7,7a,8,9,10,11,11a,11b,12,13,13a-octadecahydro-2H-cyclopenta[a]chrysen-9-yl)oxy)carbonyl)-2,2-dimethylcyclobutane-1-carboxylic acid] were 3.01 to 10 nM and less than 50 nM.

In general, IC50 refers to the point on the concentration scale where inhibition reaches its midpoint.
